Test [1] concerns p-STAT3 and c-myc protein. Put plainly: Western blot on xenograft tumor tissues. The format is in vivo, BALB/c nude mice. As to conditions: xenograft tumor tissue. On the procedure:
For the assessment of protein expression levels, Western blot analysis was conducted following a standardized protocol ([Zhou et al., 2022]). The CAKI-2 cells were initially rinsed with PBS to remove any residual culture medium. Subsequently, cells were lysed using a RIPA buffer supplemented with 1 mM phenylmethylsulfonyl fluoride (PMSF), and the lysate was incubated on ice for a duration of 1 h. The lysate was centrifuged at a speed of 13,000 rpm for 30 min at 4°C. Protein concentrations were quantified using a BCA protein assay kit (Beyotime, Shanghai, China), ensuring equal protein loading for each sample. Samples were then resolved by SDS-PAGE and transferred onto a polyvinylidene difluoride (PVDF) membrane. Subsequently, the membrane was blocked with 3% BSA in PBS at room temperature for 2 h and incubated overnight with the corresponding antibody at 4°C. […] The specific protein bands were visualized using ECL detection system (Tanon, Shanghai, China), and the band intensities were quantified using ImageJ software.
To further investigate the in vivo effects of BST-4, 6–8 weeks male BALB/c nude mice were obtained by Changzhou Cavens Experimental Animal Co., Ltd. (Changzhou, China). […] The tumor volume of mice was measured every 2 days and calculated according to the formula: (c × c × d)/2, where c and d represent the minimum diameter and maximum diameter, respectively. […]
(A western blot detects proteins with antibodies after separation by electrophoresis.)

In test [2] the target is STAT2 (Homo sapiens, UniProt P52630). Put plainly: Binding affinity to BET and STAT family members.
Chain of STAT2 (P52630 whole entry): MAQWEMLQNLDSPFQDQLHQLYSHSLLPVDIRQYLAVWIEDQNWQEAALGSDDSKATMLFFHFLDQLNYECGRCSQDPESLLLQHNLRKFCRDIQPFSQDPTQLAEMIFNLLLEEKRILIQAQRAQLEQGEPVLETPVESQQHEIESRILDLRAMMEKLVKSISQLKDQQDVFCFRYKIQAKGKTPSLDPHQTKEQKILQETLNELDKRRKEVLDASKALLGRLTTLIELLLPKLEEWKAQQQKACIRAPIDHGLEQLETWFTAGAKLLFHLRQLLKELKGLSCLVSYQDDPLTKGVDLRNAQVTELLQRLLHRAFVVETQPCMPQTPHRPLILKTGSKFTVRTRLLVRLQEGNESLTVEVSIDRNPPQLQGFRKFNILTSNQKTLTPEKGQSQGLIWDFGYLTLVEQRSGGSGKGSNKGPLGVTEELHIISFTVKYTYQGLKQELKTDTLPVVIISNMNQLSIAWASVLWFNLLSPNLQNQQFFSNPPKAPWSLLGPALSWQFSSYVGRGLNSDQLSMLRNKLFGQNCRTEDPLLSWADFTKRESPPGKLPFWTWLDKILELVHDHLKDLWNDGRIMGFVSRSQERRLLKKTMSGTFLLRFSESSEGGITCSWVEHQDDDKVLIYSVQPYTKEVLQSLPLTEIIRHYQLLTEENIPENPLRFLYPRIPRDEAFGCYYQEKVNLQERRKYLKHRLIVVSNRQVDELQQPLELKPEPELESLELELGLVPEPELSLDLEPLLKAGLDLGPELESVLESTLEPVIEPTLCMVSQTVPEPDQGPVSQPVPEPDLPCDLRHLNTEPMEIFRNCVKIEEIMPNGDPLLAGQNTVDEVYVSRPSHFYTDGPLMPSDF
For test [3], the system named is A704 cells. Briefly: MTT cytotoxicity assay. The format is cell-based. As to conditions: Homo sapiens, cell growth, 48 h treatment, read-out: IC50 (μM) ± SD A704. On the procedure:
(§1) Human normal renal cortical proximal tubular epithelial cell line HK-2 and human renal carcinoma cell lines CAKI-2, SLR-23, 769-P, A704 and RCC4 were previously purchased from the American Type Culture Collection (ATCC, Manassas, VA, USA) or the European Collection of Cell Cultures (ECACC, Salisbury, United Kingdom). HK2, A704, and RCC4 cells were maintained in high glucose DMEM supplemented with 10% FBS and 1% penicillin/streptomycin. SLR-23 and […] cells were cultured in RPMI-1640 medium with 10% FBS and 1% penicillin/streptomycin. CAKI-2 cells were maintained in McCoy’s 5A medium supplemented with 10% FBS and 1% penicillin/streptomycin. All the cell lines were cultured at 37°C in a humidified atmosphere of 5% CO2 and 95% air.
(§2) The effect of hit compounds on cytotoxicity was determined as previously reported ([Ding et al., 2020]). In brief, cells treated with the tested compounds were added with MTT reagent to form formazan crystals, and then the optical density (OD) values at 570 nm were determined after the crystals were dissolved in DMSO. […] Next, the values of IC50 of the selected compounds against more RCC cell lines were determined. The 5 × 10^3 cells in 100 μL culture medium were injected into each well of a 96-well plate and cultured overnight. Add different concentrations of compounds and incubate for 48 h. Then 100 μL of MTT (0.5 mg/mL) solution was added to the 96-well plate and maintained at 37°C for 4 h. Finally, 200 μL of DMSO was added and shaken for 10 min. The OD values at 570 nm were determined by a Synergy 4 microplate reader.
On the technique in general: Tetrazolium dyes change colour on reduction, which living cells bring about.

The test system of test [4] is HK-2 normal renal cortical proximal tubular epithelial cells. Put plainly: MTT cytotoxicity assay. The format is cell-based. Conditions: Homo sapiens, Epithelial cell, normal cell line, 48 h treatment, read-out: IC50 (μM) ± SD HK-2. On the procedure: as §1, §2
Test [5] relates to RCC4 cells. Put plainly: MTT cytotoxicity assay. The format is cell-based. Conditions: Homo sapiens, cell growth, 48 h treatment, read-out: IC50 (μM) ± SD RCC4. As to the method: as §1, §2
The test system of test [6] is 769-P cells. Put plainly: MTT cytotoxicity assay. The format is cell-based. Conditions: Homo sapiens, cell growth, 48 h treatment, read-out: IC50 (μM) ± SD 769-P. On the procedure: as §1, §2
In test [7] the test system is SLR-23 cells. Briefly: MTT cytotoxicity assay. The format is cell-based. As to conditions: Homo sapiens, cell growth, 48 h treatment, read-out: IC50 (μM) ± SD SLR-23. On the procedure:
as §1, §2

In test [8] the target is BRD4 (Homo sapiens, UniProt O60885). Put plainly: AlphaScreen BRD4 binding inhibition assay. On the set-up: purchased Abcam.
Procedure: The inhibitory effect was measured through the previously described the amplified luminescent proximity homogeneous assay (AlphaScreen) ([Feng et al., 2018]). First, the compounds were diluted twofold to different concentrations (64, 32, 16, 8, 4, 2, 1, 0.5, 0.25, 0.125, 0.0625 nM) and each was incubated with BRD4 protein at a concentration of 12.5 nM for 15 min at room temperature. Biotin-labeled peptide (SGRG-K(Ac)-GG-K(Ac)-GLG-K(Ac)-GGA-K (Ac)-RHRKVGG-K-biotin) was added for 10 min, followed by streptavidin donor beads and AlphaScreen nickel chelate acceptor and incubation for 1h. All components were incubated in a total volume of 20 μL assay buffer containing 20 mM HEPES, pH 7.4, 0.1% bovine serum albumin (BSA, w/v), 0.01% Triton X-100, and 1 mM DTT. Finally, counts were measured by EnVision (Perkin Elmer, Hopkinton, MA) and analyzed by Graphpad Prism 7.0 software.
Test [9] concerns the target STAT3 (Homo sapiens, UniProt P40763). Briefly: Microscale thermophoresis (MST) assay. The format is binding. On the set-up: purchased Abcam. As to the method:
The MST experiments were performed using the Monolith NT.115 instrument. BRD4 and STAT3 proteins were labeled with the Lys labeling kit at the final concentration of 100 nM. The compounds, previously suspended in 100% DMSO, were diluted in a buffer containing 20 mM Tris·HCl (pH 7.5), 100 mM NaCl, and 3 mM DTT, achieving a final DMSO concentration of 5%. The compounds were gradient-diluted in 1:1 dilution and starting from 100 μM. The samples were loaded into MST-standard glass capillaries. All the measurements were performed in triplicate using automatically assigned 50% MST power and 20% LED power. Data analysis was performed using GraphPad Prism 7.0 software.

A value given as a limit tells only on which side of the number the result lay.

Chain of STAT3 (P40763 whole entry): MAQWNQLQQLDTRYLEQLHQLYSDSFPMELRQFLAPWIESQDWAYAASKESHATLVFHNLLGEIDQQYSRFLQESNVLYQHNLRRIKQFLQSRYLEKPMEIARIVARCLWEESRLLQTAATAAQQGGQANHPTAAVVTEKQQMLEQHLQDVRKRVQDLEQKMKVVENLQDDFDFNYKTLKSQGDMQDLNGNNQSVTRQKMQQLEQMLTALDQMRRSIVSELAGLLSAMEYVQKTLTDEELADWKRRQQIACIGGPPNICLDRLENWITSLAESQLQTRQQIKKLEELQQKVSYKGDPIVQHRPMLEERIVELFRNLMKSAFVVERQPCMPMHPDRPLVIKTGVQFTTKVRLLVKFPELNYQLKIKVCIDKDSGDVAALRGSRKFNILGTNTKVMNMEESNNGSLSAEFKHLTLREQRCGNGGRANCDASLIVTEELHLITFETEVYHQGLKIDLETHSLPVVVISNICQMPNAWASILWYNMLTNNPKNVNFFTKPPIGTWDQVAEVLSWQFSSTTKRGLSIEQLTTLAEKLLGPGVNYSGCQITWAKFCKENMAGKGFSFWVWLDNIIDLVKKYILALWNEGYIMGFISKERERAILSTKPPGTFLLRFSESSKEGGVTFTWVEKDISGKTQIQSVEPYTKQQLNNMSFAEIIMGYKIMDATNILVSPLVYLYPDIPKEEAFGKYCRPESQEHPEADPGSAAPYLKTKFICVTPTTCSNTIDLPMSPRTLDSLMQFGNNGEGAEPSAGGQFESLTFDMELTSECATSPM

In the case of `CCS(=O)(=O)Cc1cnc(Oc2c(F)cc(F)cc2OCCCCOc2ccc(/C=C/c3cc(OC)cc(OC)c3)cc2)c(-c2cc(C)c3c(=O)[nH]ccn23)c1` [BST-4], the “c-myc protein expression level in tumor tissues” value in test [1] is reported as “significantly downregulated”. Further, the “p-STAT3 protein expression level in tumor tissues” value in [1] is recorded as “significantly downregulated”. Also, the Kd – broadly, the concentration at which binding is half-saturated – in [2] is more than 10000 nM; in test [9] (MST), 4.28 ± 0.59 nM. The IC50 (usually the point on the concentration scale where inhibition reaches its midpoint) in test [3] was 1.07 ± 0.18 µM; in test [4], more than 10 µM; in test [5], 2.19 ± 0.64 µM; in test [6], 1.68 ± 0.32 µM; in test [7] it was 1.52 ± 0.43 µM; in [8], 2.45 ± 0.11 nM. Moreover, the “BRD4 inhibition relative to RVX-208” value in [8] (IC50 ratio vs RVX-208) was “about 16 fold”. Further, the “STAT3 binding affinity relative to CJ-1383” value in test [9] (Kd ratio vs CJ-1383, MST) came to 211 fold.
